# What was measured:
# Test in all cases: relative viability (nuclei count vs DMSO), 5 days (fraction); higher = more cells survive
# [1] = compound: CS(=O)(=O)c1ccc(-c2cnc(N)c(C(=O)Nc3ccccc3)n2)cc1 [VE-821] + Cc1nc(Nc2ncc(C(=O)Nc3c(C)cccc3Cl)s2)cc(N2CCN(CCO)CC2)n1 [Dasatinib] (partner 0.075 µM)
# Procedure, shortened: (§1)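 Each reported value is a median over duplicate plates. It expresses relative viability: treated-well nuclei count divided by vehicle-well nuclei count. Lung cancer cell lines in 1536-well plates were dosed by pin tool a day after seeding, alone with one drug or with a fixed anchor-drug dose plus five library-drug doses (not always all listed) in √10 steps, and nuclei were counted after 5 days.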
# [2] = compound: CS(=O)(=O)c1ccc(C(=O)Nc2ccc(Cl)c(-c3ccccn3)c2)c(Cl)c1 [Vismodegib] + CC(=O)c1c(C)c2cnc(Nc3ccc(N4CCNCC4)cn3)nc2n(C2CCCC2)c1=O [Palbociclib] (partner 0.5 µM)
# Procedure, shortened: as §1
# [3] = compound: CS(=O)(=O)c1ccc(C(=O)Nc2ccc(Cl)c(-c3ccccn3)c2)c(Cl)c1 [Vismodegib] + CC1(C)CCC(c2ccc(Cl)cc2)=C(CN2CCN(c3ccc(C(=O)NS(=O)(=O)c4ccc(N[C@H](CCN5CCOCC5)CSc5ccccc5)c(S(=O)(=O)C(F)(F)F)c4)cc3)CC2)C1 [Navitoclax] (partner 0.5 µM)
# Procedure, shortened: as §1
# [4] = compound: CS(=O)(=O)c1ccc(C(=O)Nc2ccc(Cl)c(-c3ccccn3)c2)c(Cl)c1 [Vismodegib] + Nc1nc2[nH]cc(CCc3ccc(C(=O)N[C@@H](CCC(=O)O)C(=O)O)cc3)c2c(=O)[nH]1 [Pemetrexed] (partner 0.2 µM)
# Procedure, shortened: as §1
Cell Line,relative viability ([1]; first compound 0.08 µM),relative viability ([1]; first compound 0.253 µM),relative viability ([1]; first compound 0.8 µM),relative viability ([1]; first compound 2.53 µM),relative viability ([1]; first compound 8 µM),relative viability ([2]; first compound 0.08 µM),relative viability ([2]; first compound 0.253 µM),relative viability ([2]; first compound 0.8 µM),relative viability ([2]; first compound 2.53 µM),relative viability ([2]; first compound 8 µM),relative viability ([3]; first compound 0.08 µM),relative viability ([3]; first compound 0.253 µM),relative viability ([3]; first compound 0.8 µM),relative viability ([3]; first compound 2.53 µM),relative viability ([3]; first compound 8 µM),relative viability ([4]; first compound 0.08 µM),relative viability ([4]; first compound 0.253 µM),relative viability ([4]; first compound 0.8 µM),relative viability ([4]; first compound 2.53 µM),relative viability ([4]; first compound 8 µM)
LU99A,0.552,0.562,0.551,0.571,0.303,0.387,0.4,0.393,0.409,0.433,0.722,0.794,0.79,0.881,0.71,0.187,0.164,0.246,0.163,0.176
LXF-289,0.235,0.247,0.195,0.223,0.155,0.582,0.605,0.595,0.594,0.6,0.919,0.931,0.935,0.917,0.917,0.897,0.94,0.933,0.978,0.759
NCI-H23,0.881,0.746,0.78,0.603,0.283,0.505,0.439,0.544,0.412,0.522,0.89,0.735,0.926,0.811,0.86,0.7,0.539,0.569,0.639,0.65
NCI-H322M,0.255,0.264,0.248,0.301,0.268,0.455,0.465,0.459,0.506,0.509,1.19,1.3,1.14,1.23,1.07,0.607,0.618,0.548,0.609,0.646
NCI-H441,0.641,0.558,0.706,0.687,0.539,0.203,–,0.196,0.243,0.24,0.808,0.734,0.722,0.554,0.689,0.247,–,0.246,0.247,0.283
NCI-H460,0.58,0.488,0.428,0.261,0.223,0.225,0.125,0.217,0.156,0.35,1.01,0.995,1.28,1.06,1.21,0.0652,0.0637,0.0589,0.0651,0.0689
NCI-H520,0.232,0.23,0.166,0.298,0.165,0.182,0.224,0.254,0.198,0.288,1.06,1.12,0.941,1.12,1.09,0.743,0.619,0.827,0.709,0.666
NCI-H647,0.232,0.168,0.152,0.194,0.122,0.328,0.409,0.463,0.354,0.452,–,1.02,1.18,1.03,1.28,0.156,0.188,0.171,0.15,0.184
NCI-H838,0.301,0.259,–,0.288,0.24,0.214,0.225,0.227,0.261,0.273,1.1,1.23,1.11,1.21,1.18,0.226,0.247,0.241,0.23,0.262
NCI-H1355,0.748,0.65,0.609,0.627,0.575,0.391,0.441,0.384,0.413,0.433,0.931,1.06,0.863,0.913,0.952,0.985,1.06,0.959,1.02,1.01
NCI-H1395,0.396,0.432,0.38,0.45,0.401,0.609,0.599,0.606,0.711,0.673,1.02,1.09,1.01,1.11,1.23,0.918,0.817,0.775,0.93,0.743
NCI-H1437,0.479,0.357,0.386,0.498,0.302,0.305,0.303,0.309,0.311,0.325,0.945,1.08,1.09,1.07,1.1,0.297,0.308,0.339,0.288,0.316
NCI-H1650,0.312,0.322,0.28,0.255,0.211,0.365,0.363,0.305,0.304,0.366,1.14,1.27,1.2,1.17,1.14,0.332,0.333,0.334,0.372,0.354
NCI-H1651,0.471,0.46,0.424,0.437,0.323,0.463,0.511,0.502,0.51,0.54,0.954,0.956,0.984,0.885,1.11,0.518,0.65,0.594,0.473,0.48
NCI-H1666,0.841,0.78,0.816,0.695,0.578,0.634,0.678,0.637,0.624,0.691,1.08,1.02,1.15,0.936,0.934,0.852,0.912,0.836,0.843,0.925
NCI-H1734,0.51,0.455,0.479,0.425,0.33,0.372,0.348,0.364,0.255,0.358,0.878,0.835,0.846,0.77,0.897,0.433,0.399,0.433,0.429,0.414
NCI-H1755,0.455,0.452,0.372,0.413,0.318,0.49,0.456,0.409,0.368,0.502,0.961,0.957,1.04,0.934,0.985,0.441,0.417,0.365,0.426,0.432
NCI-H1792,0.981,0.89,0.731,0.851,0.727,0.668,0.639,0.653,0.644,0.673,0.634,0.655,0.588,0.616,0.619,0.927,0.881,0.673,0.773,0.698
NCI-H1793,0.376,0.371,0.437,0.427,0.386,–,0.295,0.345,0.321,0.422,–,0.481,0.504,0.522,0.373,–,0.877,0.708,0.83,0.726
NCI-H1915,0.335,0.295,0.345,0.33,0.332,0.499,0.483,0.549,0.53,0.53,0.773,0.805,0.747,0.729,0.759,0.464,0.434,0.515,0.444,0.49
NCI-H1944,0.22,0.213,0.185,0.27,0.228,0.292,0.324,0.326,–,0.379,0.994,1.05,1.04,1.02,0.999,0.625,0.696,0.611,–,0.629
NCI-H1975,0.372,0.287,–,0.278,0.253,0.666,0.521,0.662,0.542,0.559,1.2,1.06,1.22,1.08,1.09,0.309,0.264,0.293,0.263,0.287
NCI-H1993,0.563,0.503,0.523,0.524,0.538,0.699,0.682,0.636,0.568,0.565,1.1,0.913,0.884,0.759,0.705,0.559,0.583,0.564,0.68,0.63
NCI-H2009,0.332,0.263,0.212,0.26,0.16,0.208,0.238,0.188,0.252,0.276,1.15,1.12,1.2,1.17,1.17,1.02,1.03,1.03,0.941,0.965
NCI-H2023,0.681,0.432,0.458,0.373,0.13,0.321,0.318,0.374,0.345,0.4,0.937,1.09,1.08,0.995,0.96,0.256,0.216,0.219,0.235,0.248
NCI-H2085,0.214,0.259,0.192,0.226,0.202,0.459,0.474,0.483,0.467,0.502,1.11,1.06,1.12,1.06,1.12,0.78,0.887,0.944,0.98,0.865
NCI-H2087,0.871,0.814,0.912,1.2,0.786,0.188,0.235,0.22,0.217,0.232,0.952,0.969,0.961,0.954,0.943,0.692,0.657,0.651,0.643,0.657

# Source: the supplement of paper PMC10307832
